Test results reported in PubChem BioAssay AID1963430 (Molecular Pharmacology Branch, DTP, NCI, 2024).

System: 521955-158-R2-J5-PDC complex spheroid growth, % test/control
Experiment: Anticancer human tumor 521955-158-R2-J5-PDC patient-derived pancreatic carcinoma cell line growth inhibition [Asc]
Details: for IC50: curve of first compound; for viability, T/C: stronger effect = lower value
Outline: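 Tumor cells were grown as complex spheroids with human endothelial cells (HUVEC) and human mesenchymal stem cells as stroma. Agents were tested alone and in combination, in half-log steps down from the clinical Cmax, or from 10 microM where Cmax was unknown.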

[1] = second compound 0.1 µM, first compound 0.00316 µM
[2] = second compound 0.1 µM, first compound 0.01 µM
[3] = second compound 0.1 µM, first compound 0.0316 µM
[4] = second compound 0.1 µM, first compound 0.1 µM
[5] = second compound 0.1 µM, first compound 0.316 µM
[6] = second compound 0.1 µM, first compound 1 µM
[7] = second compound 0.316 µM, first compound 0.00316 µM
[8] = second compound 0.316 µM, first compound 0.01 µM
[9] = second compound 0.316 µM, first compound 0.0316 µM
[10] = second compound 0.316 µM, first compound 0.1 µM
[11] = second compound 0.316 µM, first compound 0.316 µM
[12] = second compound 0.316 µM, first compound 1 µM
[13] = second compound 1 µM, first compound 0.00316 µM
[14] = second compound 1 µM, first compound 0.01 µM
[15] = second compound 1 µM, first compound 0.0316 µM
[16] = second compound 1 µM, first compound 0.1 µM
[17] = second compound 1 µM, first compound 0.316 µM
[18] = second compound 1 µM, first compound 1 µM
[19] = second compound 3.16 µM, first compound 0.00316 µM
[20] = second compound 3.16 µM, first compound 0.01 µM
[21] = second compound 3.16 µM, first compound 0.0316 µM
[22] = second compound 3.16 µM, first compound 0.1 µM
[23] = second compound 3.16 µM, first compound 0.316 µM
[24] = second compound 3.16 µM, first compound 1 µM
[25] = second compound 10 µM, first compound 0.00316 µM
[26] = second compound 10 µM, first compound 0.01 µM
[27] = second compound 10 µM, first compound 0.0316 µM
[28] = second compound 10 µM, first compound 0.1 µM
[29] = second compound 10 µM, first compound 0.316 µM
[30] = second compound 10 µM, first compound 1 µM
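Also: spheroids exposed to agents for 7 days before readout.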
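For viability, T/C in this document: 100% = DMSO vehicle control viability.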

| SMILES | IC50 (second compound 0.1 µM) | IC50 (second compound 0.316 µM) | IC50 (second compound 1 µM) | IC50 (second compound 3.16 µM) | IC50 (second compound 10 µM) | viability, T/C [1] | viability, T/C [2] | viability, T/C [3] | viability, T/C [4] | viability, T/C [5] | viability, T/C [6] | viability, T/C [7] | viability, T/C [9] | viability, T/C [10] | viability, T/C [15] | viability, T/C [16] | viability, T/C [21] | viability, T/C [22] | viability, T/C [27] | viability, T/C [28] | also measured |
| --- | --- | --- | --- | --- | --- | --- | --- | --- | --- | --- | --- | --- | --- | --- | --- | --- | --- | --- | --- | --- | --- |
| CCN1CCN(Cc2ccc(Nc3ncc(F)c(-c4cc(F)c5nc(C)n(C(C)C)c5c4)n3)nc2)CC1 + Cc1c(S(C)(=O)=O)c(-c2cc(F)cc(N3CCN(c4ccc(NS(=O)(=O)c5ccc(NC(CCN6CCC(C(=O)OCCCP(=O)(O)O)CC6)CSc6ccccc6)c(S(=O)(=O)C(F)(F)F)c5)cc4)CC3)c2)c(-c2ccc(Cl)cc2)n1C(C)C | 0.00316 µM | 0.00316 µM | > 1 µM | > 1 µM | > 1 µM | 86.2% | 34.5% | 42.2% | 48.3% | 73% | 87.6% | 69% | 41.4% | 46.5% | 59.6% | 50.7% | 43.8% | 61.4% | 120% | 179% | viability, T/C [8]: 61%; viability, T/C [11]: 77.7%; viability, T/C [12]: 92.8%; viability, T/C [13]: 77.5%; viability, T/C [14]: 56.5%; viability, T/C [17]: 65.6%; viability, T/C [18]: 114%; viability, T/C [19]: 58%; viability, T/C [20]: 50.1%; viability, T/C [23]: 74.3%; viability, T/C [24]: 88.4%; viability, T/C [25]: 171%; viability, T/C [26]: 111%; viability, T/C [29]: 162%; viability, T/C [30]: 142% |
| Cn1ncnc1[C@H]1c2n[nH]c(=O)c3cc(F)cc(c23)N[C@@H]1c1ccc(F)cc1 + Cc1c(S(C)(=O)=O)c(-c2cc(F)cc(N3CCN(c4ccc(NS(=O)(=O)c5ccc(NC(CCN6CCC(C(=O)OCCCP(=O)(O)O)CC6)CSc6ccccc6)c(S(=O)(=O)C(F)(F)F)c5)cc4)CC3)c2)c(-c2ccc(Cl)cc2)n1C(C)C | > 0.1 µM | > 0.1 µM | 0.0531 µM | 0.029 µM | > 0.1 µM | 61.1% | 67.2% | 53.3% | 53.1% | – | – | 74.6% | 65.1% | 68.8% | 54.8% | 56.5% | 39.8% | 56.8% | 236% | 164% | viability, T/C (second compound 0.1 µM, first compound 0.000316 µM): 93.4%; viability, T/C (second compound 0.1 µM, first compound 0.001 µM): 80.7%; viability, T/C (second compound 0.316 µM, first compound 0.000316 µM): 99.6%; viability, T/C (second compound 0.316 µM, first compound 0.001 µM): 84.3%; viability, T/C [8]: 81.4%; viability, T/C (second compound 1 µM, first compound 0.000316 µM): 151%; viability, T/C (second compound 1 µM, first compound 0.001 µM): 85%; viability, T/C [13]: 102%; viability, T/C [14]: 55.1%; viability, T/C (second compound 3.16 µM, first compound 0.000316 µM): 78.3%; viability, T/C (second compound 3.16 µM, first compound 0.001 µM): 105%; viability, T/C [19]: 82.3%; viability, T/C [20]: 70.6%; viability, T/C (second compound 10 µM, first compound 0.000316 µM): 241%; viability, T/C (second compound 10 µM, first compound 0.001 µM): 216%; viability, T/C [25]: 201%; viability, T/C [26]: 173% |
| O=C(c1cc(Cc2n[nH]c(=O)c3ccccc23)ccc1F)N1CCN(C(=O)C2CC2)CC1 + Cc1c(S(C)(=O)=O)c(-c2cc(F)cc(N3CCN(c4ccc(NS(=O)(=O)c5ccc(NC(CCN6CCC(C(=O)OCCCP(=O)(O)O)CC6)CSc6ccccc6)c(S(=O)(=O)C(F)(F)F)c5)cc4)CC3)c2)c(-c2ccc(Cl)cc2)n1C(C)C | 5.69 µM | > 10 µM | 0.835 µM | > 10 µM | > 10 µM | – | – | 74.6% | 73.8% | 66.1% | 68.3% | – | 51.4% | 55.3% | 68.5% | 88.3% | 71.5% | 50.3% | 103% | 172% | viability, T/C (second compound 0.1 µM, first compound 3.16 µM): 59%; viability, T/C (second compound 0.1 µM, first compound 10 µM): 41.4%; viability, T/C [11]: 61.4%; viability, T/C [12]: 68.4%; viability, T/C (second compound 0.316 µM, first compound 3.16 µM): 70.1%; viability, T/C (second compound 0.316 µM, first compound 10 µM): 63.2%; viability, T/C [17]: 63.4%; viability, T/C [18]: 45.6%; viability, T/C (second compound 1 µM, first compound 3.16 µM): 52.6%; viability, T/C (second compound 1 µM, first compound 10 µM): 44.4%; viability, T/C [23]: 95.8%; viability, T/C [24]: 70.2%; viability, T/C (second compound 3.16 µM, first compound 3.16 µM): 72.9%; viability, T/C (second compound 3.16 µM, first compound 10 µM): 49.8%; viability, T/C [29]: 117%; viability, T/C [30]: 139%; viability, T/C (second compound 10 µM, first compound 3.16 µM): 102%; viability, T/C (second compound 10 µM, first compound 10 µM): 99.9% |
| O=C(c1ccc(F)c(F)c1Nc1ccc(I)cc1F)N1CC(O)([C@@H]2CCCCN2)C1 + Cc1c(S(C)(=O)=O)c(-c2cc(F)cc(N3CCN(c4ccc(NS(=O)(=O)c5ccc(NC(CCN6CCC(C(=O)OCCCP(=O)(O)O)CC6)CSc6ccccc6)c(S(=O)(=O)C(F)(F)F)c5)cc4)CC3)c2)c(-c2ccc(Cl)cc2)n1C(C)C | 0.103 µM | 0.0213 µM | 0.0322 µM | 0.0399 µM | 0.0788 µM | 64% | 60.4% | 69.8% | 45.5% | 34.5% | 19.9% | 66.9% | 56.5% | 37.8% | 49.1% | 37.6% | 50.8% | 31.6% | 135% | 36.1% | viability, T/C [8]: 44.6%; viability, T/C [11]: 23.2%; viability, T/C [12]: 13%; viability, T/C [13]: 82%; viability, T/C [14]: 64.6%; viability, T/C [17]: 18.1%; viability, T/C [18]: 5.29%; viability, T/C [19]: 61.2%; viability, T/C [20]: 75.1%; viability, T/C [23]: 9.65%; viability, T/C [24]: 5.32%; viability, T/C [25]: 169%; viability, T/C [26]: 242%; viability, T/C [29]: 10.6%; viability, T/C [30]: 2.76% |
